Results from ChEMBL document CHEMBL1134017, “Heterocycle-based MMP inhibitors with P2' substituents” (Bioorg Med Chem Lett, 2001).

Legend:
[1] = target: Stromelysin-1 (Homo sapiens, UniProt P08254)
Description: Inhibition of Matrix metalloprotease-3

[2] = target: Neutrophil collagenase (Homo sapiens, UniProt P22894)
Description: Inhibition of Matrix metalloprotease-8

[3] = target: T1, Matrilysin (Homo sapiens, UniProt P09237)
T1 sequence (P09237 whole entry): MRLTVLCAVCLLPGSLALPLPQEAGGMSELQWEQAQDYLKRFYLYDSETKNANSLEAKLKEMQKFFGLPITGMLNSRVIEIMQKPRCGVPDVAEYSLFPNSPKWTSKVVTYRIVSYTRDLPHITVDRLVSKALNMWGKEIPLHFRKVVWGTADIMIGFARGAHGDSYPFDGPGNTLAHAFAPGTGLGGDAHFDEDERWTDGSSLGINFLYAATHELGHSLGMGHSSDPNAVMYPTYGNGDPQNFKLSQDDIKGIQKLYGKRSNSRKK
Description: Inhibition of Matrix metalloprotease-7

[4] = target: Matrix metalloproteinase-9 (Homo sapiens, UniProt P14780)
Chain of Matrix metalloproteinase-9 (P14780 whole entry): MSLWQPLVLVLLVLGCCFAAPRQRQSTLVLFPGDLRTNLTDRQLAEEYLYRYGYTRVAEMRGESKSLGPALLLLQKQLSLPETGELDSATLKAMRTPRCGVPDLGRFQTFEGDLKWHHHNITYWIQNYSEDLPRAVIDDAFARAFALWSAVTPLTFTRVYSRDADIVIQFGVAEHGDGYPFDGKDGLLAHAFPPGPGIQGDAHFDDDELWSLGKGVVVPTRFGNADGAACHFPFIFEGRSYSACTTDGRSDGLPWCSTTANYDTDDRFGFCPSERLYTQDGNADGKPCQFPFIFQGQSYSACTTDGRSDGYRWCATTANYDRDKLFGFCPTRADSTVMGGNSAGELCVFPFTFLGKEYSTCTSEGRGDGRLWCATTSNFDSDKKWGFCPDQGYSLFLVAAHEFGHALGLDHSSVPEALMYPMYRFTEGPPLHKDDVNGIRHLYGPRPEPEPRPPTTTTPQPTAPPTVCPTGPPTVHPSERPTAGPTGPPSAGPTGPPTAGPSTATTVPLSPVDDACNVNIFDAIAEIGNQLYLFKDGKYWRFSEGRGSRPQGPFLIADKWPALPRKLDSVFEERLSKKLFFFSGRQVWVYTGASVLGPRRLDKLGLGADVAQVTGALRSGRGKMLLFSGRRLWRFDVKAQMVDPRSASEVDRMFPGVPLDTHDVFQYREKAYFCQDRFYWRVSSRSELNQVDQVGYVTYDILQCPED
Description: Inhibition of Matrix metalloprotease-9

[5] = target: T2, Interstitial collagenase (Homo sapiens, UniProt P03956)
T2 sequence (P03956 whole entry): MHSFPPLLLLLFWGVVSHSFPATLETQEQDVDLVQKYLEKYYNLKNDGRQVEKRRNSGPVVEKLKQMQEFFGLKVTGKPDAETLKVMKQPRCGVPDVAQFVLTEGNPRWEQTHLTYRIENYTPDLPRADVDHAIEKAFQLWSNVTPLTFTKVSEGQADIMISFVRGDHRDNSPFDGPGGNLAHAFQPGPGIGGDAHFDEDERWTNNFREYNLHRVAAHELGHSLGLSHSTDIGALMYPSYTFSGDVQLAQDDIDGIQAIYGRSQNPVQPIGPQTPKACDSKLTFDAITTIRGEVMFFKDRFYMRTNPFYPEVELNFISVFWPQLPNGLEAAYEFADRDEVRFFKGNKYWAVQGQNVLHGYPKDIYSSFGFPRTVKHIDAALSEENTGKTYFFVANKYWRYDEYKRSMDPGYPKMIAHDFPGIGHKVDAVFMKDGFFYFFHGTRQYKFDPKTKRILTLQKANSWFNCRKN
Description: Inhibition of human Matrix metalloprotease-1

[6] = target: T1, Matrilysin; remark: listed apart in the source
Description: Inhibition of Matrix metalloprotease-7

[7] = target: Collagenase 3 (Rattus norvegicus, UniProt P23097)
Description: Inhibition of Matrix metalloprotease-13

Chain of Neutrophil collagenase (P22894 whole entry): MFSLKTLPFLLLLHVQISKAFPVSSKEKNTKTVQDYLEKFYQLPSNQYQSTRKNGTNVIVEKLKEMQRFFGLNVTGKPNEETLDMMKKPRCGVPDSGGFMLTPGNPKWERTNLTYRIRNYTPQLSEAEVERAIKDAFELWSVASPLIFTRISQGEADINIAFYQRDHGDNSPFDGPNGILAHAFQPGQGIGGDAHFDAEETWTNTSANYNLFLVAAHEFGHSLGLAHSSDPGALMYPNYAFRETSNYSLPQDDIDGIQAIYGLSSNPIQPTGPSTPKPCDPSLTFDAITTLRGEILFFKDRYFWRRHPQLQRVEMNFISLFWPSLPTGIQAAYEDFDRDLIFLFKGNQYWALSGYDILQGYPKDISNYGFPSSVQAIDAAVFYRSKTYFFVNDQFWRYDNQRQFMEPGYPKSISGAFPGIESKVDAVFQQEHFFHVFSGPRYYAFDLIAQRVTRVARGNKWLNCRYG
Chain of Stromelysin-1 (P08254 whole entry): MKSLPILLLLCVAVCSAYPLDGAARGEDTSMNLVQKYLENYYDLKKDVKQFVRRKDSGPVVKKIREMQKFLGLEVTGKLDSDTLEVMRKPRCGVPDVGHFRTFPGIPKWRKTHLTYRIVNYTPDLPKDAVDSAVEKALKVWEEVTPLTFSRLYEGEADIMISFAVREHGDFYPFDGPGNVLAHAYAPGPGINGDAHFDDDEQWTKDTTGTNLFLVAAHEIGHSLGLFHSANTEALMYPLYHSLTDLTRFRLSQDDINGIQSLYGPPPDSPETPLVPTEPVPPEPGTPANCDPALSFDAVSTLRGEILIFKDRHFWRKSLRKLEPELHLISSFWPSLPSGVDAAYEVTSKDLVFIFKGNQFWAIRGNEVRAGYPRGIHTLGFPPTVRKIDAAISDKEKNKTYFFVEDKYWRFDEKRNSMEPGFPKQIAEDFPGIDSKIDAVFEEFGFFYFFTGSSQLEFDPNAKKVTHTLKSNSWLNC

| Structure (SMILES) | IC50 [1] [nM] | IC50 [2] [nM] | IC50 [3] [nM] | IC50 [4] [nM] | IC50 [5] [nM] | IC50 [6] [nM] | IC50 [7] [nM] |
| --- | --- | --- | --- | --- | --- | --- | --- |
| COCCN1CN(S(=O)(=O)c2ccc(OC)cc2)[C@@H](C(=O)NO)CC1=O | 180 | 102 | 10000 | 52.5 | 696 |  |  |
| COc1ccc(S(=O)(=O)N2CCN(C(=O)OCc3ccccc3)CC[C@@H]2C(=O)NO)cc1 | 14 | 3.3 |  | 1.8 | 97 | 737 | 2.1 |
| COc1ccc(S(=O)(=O)N2CCN(S(=O)(=O)c3cn(C)cn3)CC[C@@H]2C(=O)NO)cc1 | 39.2 | 6.6 |  | 5.5 | 346 | 2780 | 2.4 |
| COc1ccc(S(=O)(=O)N2CCN(Cc3ccccc3)C(=O)C[C@@H]2C(=O)NO)cc1 | 3.3 | 1.5 | 88 | 1 | 13.6 |  |  |
| COc1ccc(S(=O)(=O)N2CC[C@H](C(=O)NO)N(S(=O)(=O)c3ccc(OC)cc3)CC2)cc1 | 6.3 | 1.8 |  |  | 28.9 | 905 | 0.84 |
| COc1ccc(S(=O)(=O)N2CN(Cc3ccccc3)C(=O)C[C@@H]2C(=O)NO)cc1 |  | 6.4 | > 10000 | 6.8 | 22.2 |  |  |
| COc1ccc(S(=O)(=O)N2CCN(C(C)C)C(=O)C[C@@H]2C(=O)NO)cc1 | 6.5 | 3.7 | 369 | 4.1 | 22 |  | 1.9 |

More lines, now with the values ahead:

| IC50 [1] [nM] | IC50 [2] [nM] | IC50 [3] [nM] | IC50 [4] [nM] | IC50 [5] [nM] | IC50 [6] [nM] | IC50 [7] [nM] | Structure (SMILES) |
| --- | --- | --- | --- | --- | --- | --- | --- |
|  | 6.3 | 3460 | 4.2 | 643 |  | 2.9 | COc1ccc(S(=O)(=O)N2CN(C(C)C)C(=O)C[C@@H]2C(=O)NO)cc1 |
|  | 2.8 | 776 | 3.3 | 465 |  | 0.75 | COc1ccc(S(=O)(=O)N2CN(C3CCCCC3)C(=O)C[C@@H]2C(=O)NO)cc1 |
| 3.4 |  |  |  | 1.2 |  | 2 | COc1ccc(S(=O)(=O)N2C[C@@H]3CCCN3C(=O)C[C@@H]2C(=O)NO)cc1 |
|  | 47.3 | > 10000 | 24.1 | 2200 |  | 7.9 | COc1ccc(S(=O)(=O)N2CN(C)C(=O)C[C@@H]2C(=O)NO)cc1 |
|  | 1.5 | 909 | 1.1 | 320 |  | 0.34 | COc1ccc(S(=O)(=O)N2CN(C(C)(C)C)C(=O)C[C@@H]2C(=O)NO)cc1 |
